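In this assay, cells in 96-well plates receive the compound at five concentrations for 48 hours. Endpoints are linearly interpolated between the surrounding concentrations. GI50: concentration for 50% inhibition of growth. At the TGI there is no net growth.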
Tests used:
Experiment in all cases: DTP human tumour cell line panel, 48 h
[1] = tested on: 786-0 renal
[2] = tested on: A498 renal
[3] = tested on: A549 NSCLC
[4] = tested on: ACHN renal
[5] = tested on: BT-549 breast
[6] = tested on: CAKI-1 renal
[7] = tested on: CCRF-CEM leukemia
[8] = tested on: COLO 205 colon
[9] = tested on: DU-145 prostate
[10] = tested on: EKVX NSCLC
[11] = tested on: HCC-2998 colon
[12] = tested on: HCT-116 colon
[13] = tested on: HCT-15 colon
[14] = tested on: HL-60(TB) leukemia
[15] = tested on: HOP-62 NSCLC
[16] = tested on: HOP-92 NSCLC
[17] = tested on: HS 578T breast
[18] = tested on: HT29 colon
[19] = tested on: IGROV1 ovarian
[20] = tested on: K-562 leukemia
[21] = tested on: KM12 colon
[22] = tested on: LOX IMVI melanoma
[23] = tested on: M14 melanoma
[24] = tested on: MALME-3M melanoma
[25] = tested on: MCF7 breast
[26] = tested on: MDA-MB-231 breast
[27] = tested on: MDA-MB-435
[28] = tested on: MDA-MB-468 breast
[29] = tested on: MOLT-4 leukemia
[30] = tested on: NCI-H226 lung
[31] = tested on: NCI-H23 lung
[32] = tested on: NCI-H460 lung
[33] = tested on: NCI-H522 lung
[34] = tested on: OVCAR-3 ovarian
[35] = tested on: OVCAR-4 ovarian
[36] = tested on: OVCAR-5 ovarian
[37] = tested on: OVCAR-8 ovarian
[38] = tested on: PC-3 prostate
[39] = tested on: RPMI-8226 leukemia
[40] = tested on: RXF 393 renal
[41] = tested on: SF-268 CNS
[42] = tested on: SF-295 CNS
[43] = tested on: SF-539 CNS
[44] = tested on: SK-MEL-2 melanoma
[45] = tested on: SK-MEL-28 melanoma
[46] = tested on: SK-MEL-5 melanoma
[47] = tested on: SK-OV-3 ovarian
[48] = tested on: SN12C renal
[49] = tested on: SNB-19 CNS
[50] = tested on: SNB-75 CNS
[51] = tested on: SR leukemia
[52] = tested on: SW-620 colon
[53] = tested on: T-47D breast
[54] = tested on: TK-10 renal
[55] = tested on: U251 CNS
[56] = tested on: UACC-257 melanoma
[57] = tested on: UACC-62 melanoma
[58] = tested on: UO-31 renal

SMILES: CNC(=O)c1cccc(NC(=O)c2ccc3c(c2)nnn3/C(C#N)=C/c2ccccn2)c1
- GI50 [1]: 2.38 µM
- TGI [1]: 7.7 µM
- GI50 [2]: 18.6 µM
- TGI [2]: 41.1 µM
- GI50 [3]: 22.1 µM
- TGI [3]: 60 µM
- GI50 [4]: 13.7 µM
- TGI [4]: 26.8 µM
- GI50 [5]: 1.95 µM
- TGI [5]: 5.59 µM
- GI50 [6]: 6.37 µM
- TGI [6]: 19.9 µM
- GI50 [7]: 3.71 µM
- TGI [7]: 38.4 µM
- GI50 [8]: 2.63 µM
- TGI [8]: 6.7 µM
- GI50 [9]: 15.3 µM
- TGI [9]: 29 µM
- GI50 [10]: 15.8 µM
- TGI [10]: 30.2 µM
- GI50 [11]: 16.1 µM
- TGI [11]: 29.8 µM
- GI50 [12]: 2.74 µM
- TGI [12]: 10.1 µM
- GI50 [13]: 10.8 µM
- TGI [13]: 23.6 µM
- GI50 [14]: 3.21 µM
- TGI [14]: 24.2 µM
- GI50 [15]: 17.9 µM
- TGI [15]: 41.2 µM
- GI50 [16]: 11.6 µM
- TGI [16]: 27.3 µM
- GI50 [17]: 12.6 µM
- TGI [17]: 38.1 µM
- GI50 [18]: 10.5 µM
- TGI [18]: 31.1 µM
- GI50 [19]: 13.6 µM
- TGI [19]: 27.5 µM
- GI50 [20]: 3.11 µM
- TGI [20]: > 100 µM
- GI50 [21]: 16.5 µM
- TGI [21]: 46.9 µM
- GI50 [22]: 1.86 µM
- TGI [22]: 3.9 µM
- GI50 [23]: 10.9 µM
- TGI [23]: 23 µM
- GI50 [24]: 1.85 µM
- TGI [24]: 3.94 µM
- GI50 [25]: 3.46 µM
- TGI [25]: 15.6 µM
- GI50 [26]: 11.8 µM
- TGI [26]: 24.7 µM
- GI50 [27]: 7.69 µM
- TGI [27]: 21.4 µM
- GI50 [28]: 1.71 µM
- TGI [28]: 3.43 µM
- GI50 [29]: 3.51 µM
- TGI [29]: 39 µM
- GI50 [30]: 14.3 µM
- TGI [30]: 29.2 µM
- GI50 [31]: 13.4 µM
- TGI [31]: 26.8 µM
- GI50 [32]: 15.7 µM
- TGI [32]: 34.1 µM
- GI50 [33]: 1.61 µM
- TGI [33]: 3.14 µM
- GI50 [34]: 3.11 µM
- TGI [34]: 10.2 µM
- GI50 [35]: 15.7 µM
- TGI [35]: 29.4 µM
- GI50 [36]: 15.7 µM
- TGI [36]: 29.3 µM
- GI50 [37]: 15.3 µM
- TGI [37]: 29.8 µM
- GI50 [38]: 19.2 µM
- TGI [38]: 48 µM
- GI50 [39]: 10.4 µM
- TGI [39]: 52.1 µM
- GI50 [40]: 4.88 µM
- TGI [40]: 16.9 µM
- GI50 [41]: 17.9 µM
- TGI [41]: 41.4 µM
- GI50 [42]: 19.7 µM
- TGI [42]: 39.5 µM
- GI50 [43]: 13.8 µM
- TGI [43]: 26.9 µM
- GI50 [44]: 12.8 µM
- TGI [44]: 25.9 µM
- GI50 [45]: 1.95 µM
- TGI [45]: 4.33 µM
- GI50 [46]: 14.1 µM
- TGI [46]: 27.4 µM
- GI50 [47]: 30.2 µM
- TGI [47]: > 100 µM
- GI50 [48]: 16.4 µM
- TGI [48]: 30.3 µM
- GI50 [49]: 18.6 µM
- TGI [49]: 38.9 µM
- GI50 [50]: 17.7 µM
- TGI [50]: 92.4 µM
- GI50 [51]: 2.76 µM
- TGI [51]: > 100 µM
- GI50 [52]: 1.87 µM
- TGI [52]: 3.75 µM
- GI50 [53]: 2.31 µM
- TGI [53]: 7.38 µM
- GI50 [54]: 14 µM
- TGI [54]: 27.6 µM
- GI50 [55]: 15.3 µM
- TGI [55]: 32.2 µM
- GI50 [56]: 8.21 µM
- TGI [56]: 21.2 µM
- GI50 [57]: 14 µM
- TGI [57]: 27.7 µM
- GI50 [58]: 12.7 µM
- TGI [58]: 25.3 µM

Reference: PubChem BioAssay (NCI)
